Results on 29 compounds are retold here after US8921555B2, “Substituted-1,3,8-triazaspiro[4.5]decane-2,4-diones” (Merck Sharp & Dohme Corp., priority 2009, dated 2014).

Bounds are passed on as bounds.

The target of one assay is T1, HIF-PHD2 (Homo sapiens, UniProt Q9GZT9).
T1 construct: FLAG-tagged full length PHD2 expressed in and purified from baculovirus-infected Sf9 cells; FLAG; made in house; host or cells: baculovirus-infected Sf9 cells
T1 sequence (Q9GZT9 whole entry): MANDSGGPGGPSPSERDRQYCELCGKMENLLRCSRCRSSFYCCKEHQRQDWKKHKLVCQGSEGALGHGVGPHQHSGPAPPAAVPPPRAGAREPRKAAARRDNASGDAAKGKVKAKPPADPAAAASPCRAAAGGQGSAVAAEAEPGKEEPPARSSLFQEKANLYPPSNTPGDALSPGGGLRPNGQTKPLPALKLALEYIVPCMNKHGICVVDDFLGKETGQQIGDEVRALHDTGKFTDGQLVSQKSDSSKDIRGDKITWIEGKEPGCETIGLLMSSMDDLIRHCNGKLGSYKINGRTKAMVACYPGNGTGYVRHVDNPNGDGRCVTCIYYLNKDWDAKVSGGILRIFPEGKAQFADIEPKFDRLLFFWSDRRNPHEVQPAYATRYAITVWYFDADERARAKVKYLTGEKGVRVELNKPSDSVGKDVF
Description: Assay for HIF-PHD2 Catalytic Activity (PHD2 Binding Activity). Type of assay: biochemical.
Settings: not given
In the case of `Cc1cccnc1CN1CCC2(CC1)C(=O)N(c1ccc(-c3ccccc3)cc1)C(=O)N2c1ccncc1` [Compound 1-8, 3-biphenyl-4-yl-8-[(3-methylpyridin-2-yl)methyl]-1-pyridin-4-yl-1,3,8-triazaspiro[4.5]decane-2,4-dione], the half-maximal inhibitory concentration (IC50) – broadly, the concentration that inhibits the measured activity by half – lay within 20 to 50 nM.

Compound `Cc1cncc(N2C(=O)N(c3ccc(-c4ccc(C(=O)O)cc4C)cc3)C(=O)C23CCN(Cc2ncccc2C)CC3)n1` [Compound 7-6, 2-methyl-4′-{1-(6-methylpyrazin-2-yl)-8-[(3-methylpyridin-2-yl)methyl]-2,4-dioxo-1,3,8-triazaspiro[4.5]dec-3-yl}biphenyl-4-carboxylic acid] returned a half-inhibitory concentration (IC50) of 0.5 to 20 nM.

Consider `O=C(O)CN1CCC2(CC1)C(=O)N(c1ccc(-c3ccccc3)cc1)C(=O)N2c1cncnc1` [Compound 2-4, (3-biphenyl-4-yl-2,4-dioxo-1-pyrimidin-5-yl-1,3,8-triazaspiro[4.5]dec-8-yl)acetic acid], for which the half-maximal inhibitory concentration (IC50) was in the range of 20 to 50 nM.

`COc1ccnc(N2C(=O)N(c3ccc(-c4nnn[nH]4)cc3)C(=O)C23CCN(Cc2ncccc2C)CC3)n1` [Compound 1-15, 1-(4-methoxypyrimidin-2-yl)-8-[(3-methylpyridin-2-yl)methyl]-3-[4-(1H-tetrazol-5-yl)phenyl]-1,3,8-triazaspiro[4.5]decane-2,4-dione]: the IC50 lay in the range of 20 to 50 nM.

Regarding `Cc1[nH]cnc1CN1CCC2(CC1)C(=O)N(c1ccc(-c3ccccc3)cc1)C(=O)N2c1cc(O)ncn1` [Compound 1-53, 3-biphenyl-4-yl-1-(6-hydroxypyrimidin-4-yl)-8-[(5-methyl-1-H-imidazol-4-yl)methyl]-1,3,8-triazaspiro[4.5]decane-2,4-dione], the IC50 lay in the range of 0.5 to 20 nM.

For the compound `O=C(O)c1[nH]cnc1CN1CCC2(CC1)C(=O)N(c1ccc(-c3ccccc3)cc1)C(=O)N2c1nccc(O)n1` [Compound 1-50], the IC50 is 20 to 50 nM.

With `Cc1cc(C(=O)O)ccc1-c1ccc(N2C(=O)N(c3cccnn3)C3(CCN(Cc4ncccc4C)CC3)C2=O)cc1` [Compound 9-2, 2-methyl-4′-{8-[(3-methylpyridin-2-yl)methyl]-2,4-dioxo-1-pyridazin-3-yl-1,3,8-triazaspiro[4.5]dec-3-yl}biphenyl-4-carboxylic acid], the 50% inhibitory concentration (IC50) lay within 0.5 to 20 nM.

For the compound `COc1cccc(N2C(=O)N(c3ccc(-c4ccccc4)cc3)C(=O)C23CCN(Cc2ncccc2C)CC3)n1` [Compound 1-11, 3-biphenyl-4-yl-1-(6-methoxypyridin-2-yl)-8-[(3-methylpyridin-2-yl)methyl]-1,3,8-triazaspiro[4.5]decane-2,4-dione], the IC50 fell in the range of 0.5 to 20 nM.

For `CCOC(=O)C1CN(Cc2ncccc2C)CCC12C(=O)N(c1ccc(-c3ccccc3)cc1)C(=O)N2c1nccc(O)n1` (centres unmarked) [Compound 3-3, ethyl 3-biphenyl-4-yl-1-(4-hydroxypyrimidin-2-yl)-8-[(3-methylpyridin-2-yl)methyl]-2,4-dioxo-1,3,8-triazaspiro[4.5]decane-6-carboxylate], the half-inhibitory concentration (IC50) lay in the range of 0.5 to 20 nM.

As to `COc1ccnc(N2C(=O)N(c3ccc(-c4ccccc4)cc3)C(=O)C23CCN(Cc2ncccc2Br)CC3)n1` [Compound 1-28, 3-biphenyl-4-yl-8-[(3-bromopyridin-2-yl)methyl]-1-(4-methoxypyrimidin-2-yl)-1,3,8-triazaspiro[4.5]decane-2,4-dione], the concentration for half-maximal inhibition (IC50) lay within 20 to 50 nM.

The compound `Cc1cccnc1CN1CCC2(CC1)C(=O)N(c1ccc(Br)cc1)C(=O)N2c1cc(-c2ccc(C(=O)O)cc2)ncn1` [Compound 7-15, 4-(6-{3-(4-bromophenyl)-8-[(3-methylpyridin-2-yl)methyl]-2,4-dioxo-1,3,8-triazaspiro[4.5]dec-1-yl}pyrimidin-4-yl)benzoic acid] had an IC50 of 0.5 to 20 nM.

Take `Cc1cccnc1CN1CCC2(CC1)C(=O)N(c1ccc(-c3ccc(CC(=O)O)cc3)cc1)C(=O)N2c1ncccn1` [Compound 1-67, (4′-{8-[(3-methylpyridin-2-yl)methyl]-2,4-dioxo-1-pyrimidin-2-yl-1,3,8-triazaspiro[4.5]dec-3-yl}biphenyl-4-yl)acetic acid]: the half-maximal inhibitory concentration (IC50) was in the range of 20 to 50 nM.

The compound `Cc1cccnc1CN1CCC2(C(=O)N(c3ccc(-c4ccccc4)cc3)C(=O)N2c2nccc(O)n2)C(C(=O)O)C1` (centres unmarked) [Compound 3-4, 3-biphenyl-4-yl-1-(4-hydroxypyrimidin-2-yl)-8-[(3-methylpyridin-2-yl)methyl]-2,4-dioxo-1,3,8-triazaspiro[4.5]decane-6-carboxylic acid] gave a half-maximal inhibitory concentration (IC50) of 0.5 to 20 nM.

Regarding `Cc1cccnc1CN1CCC2(CC1)C(=O)N(c1ccc(-c3ccccc3)cc1)C(=O)N2c1ccc(C#N)cn1` [Compound 1-7, 6-{3-biphenyl-4-yl-8-[(3-methylpyridin-2-yl)methyl]-2,4-dioxo-1,3,8-triazaspiro[4.5]dec-1-yl}nicotinonitrile], the IC50 lay within 0.5 to 20 nM.

The compound `Cc1cccnc1CN1CCC2(CC1)C(=O)N(c1ccc(-c3ccccc3)cc1)C(=O)N2c1ccccc1` [Compound 1-4, 3-biphenyl-4-yl-8-[(3-methylpyridin-2-yl)methyl]-1-phenyl-1,3,8-triazaspiro[4.5]decane-2,4-dione] showed an IC50 of 0.5 to 20 nM.

`COc1cc(OC)nc(N2C(=O)N(c3ccc(-c4ccccc4)cc3)C(=O)C23CCN(Cc2ncccc2C)CC3)n1` [Compound 1-57, 3-biphenyl-4-yl-1-(4,6-dimethoxypyrimidin-2-yl)-8-[(3-methylpyridin-2-yl)methyl]-1,3,8-triazaspiro[4.5]decane-2,4-dione] had an IC50 of 0.5 to 20 nM.

With `COc1ccnc(N2C(=O)N(c3ccccc3)C(=O)C23CCN(Cc2ncccc2C)CC3)n1` [Compound 1-30, 1-(4-methoxypyrimidin-2-yl)-8-[(3-methylpyridin-2-yl)methyl]-3-phenyl-1,3,8-triazaspiro[4.5]decane-2,4-dione], the IC50 is greater than 50 nM.

The compound `COC(=O)c1cccc(N2C(=O)N(c3ccc(-c4ccccc4)cc3)C(=O)C23CCN(Cc2ncccc2C)CC3)n1` [Compound 1-13, methyl 6-{3-biphenyl-4-yl-8-[(3-methylpyridin-2-yl)methyl]-2,4-dioxo-1,3,8-triazaspiro[4.5]dec-1-yl}pyridine-2-carboxylate] had an IC50 of 0.5 to 20 nM.

`COC(=O)c1ccc(-c2ccc(N3C(=O)N(c4ncccn4)C4(CCN(Cc5ncccc5C)CC4)C3=O)cc2)cc1` [Compound 1-61, Methyl 4′-{8-[(3-methylpyridin-2-yl)methyl]-2,4-dioxo-1-pyrimidin-2-yl-1,3,8-triazaspiro[4.5]dec-3-yl}biphenyl-4-carboxylate] came in with a 50% inhibitory concentration (IC50) of 0.5 to 20 nM.

`O=C(O)c1[nH]cnc1CN1CCC2(CC1)C(=O)N(c1ccc(-c3ccccc3)cc1)C(=O)N2c1cc(O)ncn1` [Compound 1-52, 4-{[3-biphenyl-4-yl-1-(6-hydroxypyrimidin-4-yl)-2,4-dioxo-1,3,8-triazaspiro[4.5]dec-8-yl]methyl}-1-H-imidazole-5-carboxylic acid] came in with a 50% inhibitory concentration (IC50) of 0.5 to 20 nM.

In turn, `Cc1cccnc1CN1CCC2(CC1)C(=O)N(c1ccc(-c3cccc(C(=O)O)c3)cc1)C(=O)N2c1ncccn1` [Compound 1-66, 4′-{8-[(3-methylpyridin-2-yl)methyl]-2,4-dioxo-1-pyrimidin-2-yl-1,3,8-triazaspiro[4.5]dec-3-yl}biphenyl-3-carboxylic acid] gave a half-inhibitory concentration (IC50) of 0.5 to 20 nM.

Take `O=C(O)CN1CCC2(CC1)C(=O)N(c1ccc(-c3ccccc3)cc1)C(=O)N2c1ncccn1` [Compound 2-5, (3-biphenyl-4-yl-2,4-dioxo-1-pyrimidin-2-yl-1,3,8-triazaspiro[4.5]dec-8-yl)acetic acid]: the IC50 lay within 0.5 to 20 nM.

Turning to `Cc1cccnc1CN1CCC2(C(=O)N(c3ccc(-c4ccccc4)cc3)C(=O)N2c2ncccn2)C(C(=O)O)C1` (centres unmarked) [Compound 3-8, 3-biphenyl-4-yl-8-[(3-methylpyridin-2-yl)methyl]-2,4-dioxo-1-pyrimidin-2-yl-1,3,8-triazaspiro[4.5]decane-6-carboxylic acid], the IC50 was 0.5 to 20 nM.

As for `Cc1cccnc1CN1CCC2(CC1)C(=O)N(c1ccc(-c3ccccc3)cc1)C(=O)N2c1cccnc1` [Compound 1-18, 3-biphenyl-4-yl-8-[(3-methylpyridin-2-yl)methyl]-1-pyridin-3-yl-1,3,8-triazaspiro[4.5]decane-2,4-dione], the IC50 was 0.5 to 20 nM.

Compound `CCCCOC(=O)c1[nH]cnc1CN1CCC2(CC1)C(=O)N(c1ccc(-c3ccccc3)cc1)C(=O)N2c1nccc(OC)n1` [Compound 1-47, Butyl 4-{[3-biphenyl-4-yl-1-(4-methoxypyrimidin-2-yl)-2,4-dioxo-1,3,8-triazaspiro[4.5]dec-8-yl]methyl}-1-H-imidazole-5-carboxylate] gave an IC50 of 20 to 50 nM.

The same assay, now with this note: read-out: PHD2 Binding Activity IC50.
Turning to `Cc1cccnc1CN1CCC2(CC1)C(=O)N(c1ccc(-c3ccccc3)cc1)C(=O)N2C(=O)CCC(=O)O` [Compound 5-7, 4-{3-biphenyl-4-yl-8-[(3-methylpyridin-2-yl)methyl]-2,4-dioxo-1,3,8-triazaspiro[4.5]dec-1-yl}-4-oxobutanoic acid], the IC50 was in the range of 0.5 to 20 nM.

Take `Cc1cc(C(=O)O)ccc1-c1ccc(N2C(=O)N(CC(F)(F)F)C3(CCN(Cc4ncccc4C)CC3)C2=O)cn1` [Compound 11-3, 3-methyl-4-(5-{8-[(3-methylpyridin-2-yl)methyl]-2,4-dioxo-1-(2,2,2-trifluoroethyl)-1,3,8-triazaspiro[4.5]dec-3-yl}-pyridin-2-yl) benzoic acid]: the IC50 lay within 0.5 to 20 nM.

On to `Cc1cccnc1CN1CCC2(CC1)C(=O)N(c1ccc(-c3ccccc3)cc1)C(=O)N2C(=O)N[C@H](C)C(=O)O` [Compound 5-4, (2R)-2-[({3-biphenyl-4-yl-8-[(3-methylpyridin-2-yl)methyl]-2,4-dioxo-1,3,8-triazaspiro[4.5]dec-1-yl}carbonyl)amino]propanoic acid], for which the IC50 was 0.5 to 20 nM.

As to `Cc1cccnc1CN1CCC2(CC1)C(=O)N(c1ccc(-c3ccccc3)cc1)C(=O)N2C` [Compound 2-1, 3-biphenyl-4-yl-1-methyl-8-[(3-methylpyridin-2-yl)methyl]-1,3,8-triazaspiro[4.5]decane-2,4-dione], the half-inhibitory concentration (IC50) was 0.5 to 20 nM.
